From article PMC9101087, “A Sensitive LC-MS/MS Method for the Simultaneous Determination of Two Thia-Analogous Indirubin N-Glycosides and Indirubin-3′-Monoxime in Plasma and Cell Culture Medium” (Molecules, 2022)

Experiments:
[1] = test system: human gastric (SNU-638) cancer cells; details: sulforhodamine B assay, incubation 24 h longer than the 48-h assay; cited from earlier work
[2] = test system: human fibrosarcoma cell line HT1080; details: sulforhodamine B assay, incubation 24 h longer than the 48-h assay; cited from earlier work
[3] = test system: human colon (Col2) cancer cells; details: sulforhodamine B assay, incubation 24 h longer than the 48-h assay; cited from earlier work
[4] = test system: leukemia cells (HL60); details: sulforhodamine B assay, incubation 24 h longer than the 48-h assay; cited from earlier work
[5] = test system: human breast cancer cells (MCF-7); details: sulforhodamine B assay, incubation 24 h longer than the 48-h assay; cited from earlier work
[6] = test system: A549 lung cancer cells; details: sulforhodamine B assay, incubation 24 h longer than the 48-h assay; cited from earlier work
[7] = Storage stability in human plasma, LC-MS/MS after plasma precipitation; format: in vitro ADME; details: long-term freezing
[8] = Storage stability in DMEM, LC-MS/MS after DMEM extraction; format: physicochemical; details: for Stability 4 °C / Stability AS (autosampler) / Stability −20 °C / Stability BT (benchtop): 24 h; for Stability FT (freeze-thaw): freeze-thaw cycles; for Stability −80 °C 91 d: long-term freezing; for Stability BT (benchtop): room temperature
Procedure: (§1) To assess stability, low and high concentrations of all analytes were subjected to different storage conditions. […] For determination of long-term stability, samples were stored in either plasma or DMEM at –80 °C for 90 and 91 days, respectively. To measure short-term stability, samples were stored at room temperature, in an autosampler, at 4 °C, and at –20 °C for 24 h. In addition, freeze-thaw cycles were performed according to FDA guidance for the standard solutions. For comparison, at least three freshly prepared samples were prepared for each concentration level. With the exception of autosampler stability, the internal standard was always added to all samples before sample processing was started.
Regarding the medium, validation procedures were performed with high-glucose DMEM supplemented with 100 U/mL penicillin and 100 μg/mL streptomycin, but not with FBS. With the exception of selectivity, where both media (GlutaMAX™-I or UltraGlutamine^TM I supplement) were tested, only Gibco™ DMEM with GlutaMAX™-I was used for all other analytical procedures.
(§2) Liquid-liquid extraction was performed identically for plasma and DMEM samples. After addition of the 1.0 µM internal standard, 50 µL of 0.8 M alkaline carbonate buffer was added. The extraction was performed once with 890 µL ethyl acetate. Tubes were then shaken for 10 min at 1400 rpm using a Thermomixer 5436 (Eppendorf AG, Hamburg, Germany) followed by centrifugation for 5 min at 14,000 rpm using a Centrifuge 5415 C (Eppendorf AG, Hamburg, Germany). Subsequently, 850 µL of the supernatant was transferred to a new tube and evaporated to dryness for 35 min at 35 °C (8 min heating time) using a SpeedVac SPD130DLX (Thermo Fisher Scientific, Asheville, NC, USA). Reconstitution was performed with 200 µL of a acetonitrile/water/H2SO4 [3/0.5/0.5] mixture, shaken at 1400 rpm for 5 min, and centrifuged again at 14,000 rpm for 5 min. Finally, 155 µL of the sample was transferred to an LC vial and analyzed.
(§3) To assess stability, low and high concentrations of all analytes were exposed to different storage conditions. To determine long-term stability, samples were stored in either plasma or DMEM at −80 °C for 90 and 91 days, respectively. To determine short-term stability, samples were stored for 24 h on the bench at room temperature, in the autosampler, at 4 °C, and at −20 °C. In addition, freeze-thaw cycles were performed for the standard solutions according to FDA guidance. At least three freshly prepared samples per concentration level were prepared for comparison. With the exception of the stability test in the autosampler, the internal standard was always added to all samples before sample processing was started. However, to avoid concentration fluctuations due to possible degradation of the analytes, stock solutions were prepared twice a week and stored at −20 °C. Each storage condition was examined in the dark. For all conditions studied, n = 3–6 replicates were prepared.

[9] = Storage stability in human plasma, LC-MS/MS after plasma precipitation; format: in vitro ADME; details: for Stability 4 °C / Stability AS (autosampler) / Stability −20 °C / Stability BT (benchtop): 24 h; for Stability FT (freeze-thaw): freeze-thaw cycles; for Stability BT (benchtop): room temperature
Procedure: as §1
After mixing the 1.5 µM internal standard and the plasma sample, protein precipitation was commenced. Next, 190 µL of acetonitrile and 50 µL of 0.5 M sulfuric acid buffer were added. The tubes were then shaken at 1400 rpm for 5 min followed by centrifugation at 14,000 rpm for 5 min. Subsequently, 195 µL of the supernatant was transferred to an LC tube and analyzed.
as §3

[10] = Storage stability in human plasma, LC-MS/MS after plasma extraction; format: in vitro ADME; details: for Stability 4 °C / Stability AS (autosampler) / Stability −20 °C / Stability BT (benchtop): 24 h; for Stability FT (freeze-thaw): freeze-thaw cycles; for Stability −80 °C 90 d: long-term freezing; for Stability BT (benchtop): room temperature
Procedure: as §1, §2, §3

[11] = test system: U138MG (glioblastoma); assay: WST-1 cell viability assay, 48-h incubation; format: cell-based, human; details: WST-1, 48 h
Procedure: (§4) To test the biological activity of the thia-analogous indirubin N-glycosides that are the focus of the present work, the effects of KD87 and KD85 and their non-glycosylated parent compound KD88 on the viability of various tumor cell lines were initially investigated. The corresponding analyses were performed using the cell lines A375 (melanoma), A431 (skin squamous cell carcinoma), A549 (non-small cell lung carcinoma), U251MG (glioblastoma), and U138MG (glioblastoma).
(§5) Figure 2 Effect of increasing concentrations of KD87 (A), KD85 (B), and KD88 (C) on viability of various cancer cells. A375 (melanoma; black columns), A431 (skin squamous cell carcinoma; dark grey columns), A549 (non-small cell lung carcinoma; grey columns), U251MG (glioblastoma; light grey columns), or U138MG (glioblastoma; white columns) were incubated for 48 h with the appropriate compounds or vehicle followed by determination of cell viability by WST-1 assay. Percent control represents comparison with vehicle-treated cells (100%) in the absence of test substance. Values are mean ± standard error of the mean (SEM) of n = 15 in all panels, except n = 14 for A375 and A431 cells in panel B and n = 14–15 for A375 cells in panel C, from four (A375, A431) or five (A549, U251MG, U138MG) independent experiments. * p ≤ 0.05, ** p ≤ 0.01, *** p ≤ 0.001, **** p ≤ 0.0001 vs. vehicle control; one-way ANOVA with Dunnett’s post hoc test.
(§6) The human melanoma cell line A375 (#300110; RRID:CVCL_0132) as well as the human skin epidermoid carcinoma cell line A431 (#300112; RRID:CVCL_0037) were purchased from CLS Cell Lines Service GmbH (Eppelheim, Germany). The human glioblastoma cell line U251MG (#09063001; RRID:CVCL_0021) was from Sigma-Aldrich Corporation. The human glioblastoma cell line U138MG (#ACC 291; RRID: CVCL_0020) and the human lung carcinoma cell line A549 (#ACC 107, RRID:CVCL_0023) were purchased from DSMZ (Deutsche Sammlung von Mikroorganismen und Zellkulturen GmbH, Braunschweig, Germany).
(§7) Cells were cultured in high-glucose DMEM (with GlutaMAX™-I: A375, A431; with UltraGlutamine^TM I: A549, U251MG, U138MG) supplemented with 10% heat-inactivated FBS, 100 U/mL penicillin, and 100 μg/mL streptomycin and grown in a humidified incubator at 37 °C and 5% CO2. For viability analyses, cells were seeded in 96-well plates at a density of 5000 cells per well in DMEM containing 10% heat-inactivated FBS and cultured for 24 h. All cell experiments with the specific substances were performed in serum-free DMEM supplemented with 100 U/mL penicillin and 100 μg/mL streptomycin, applied after washing the cells with DPBS. The test substances were dissolved in DMSO. The final concentration of DMSO in the incubation media of test substance- and vehicle-treated cells was 1% (v/v).
(§8) After completion of the 48-h incubation, WST-1 reagent (Sigma, Taufkirchen, Germany) was added to the cells to achieve a final dilution of 1:10, and the cells were incubated for an additional 20 min before absorbance was measured at 450 nm, reference wavelength […], using a microplate reader.

[12] = test system: U251MG (glioblastoma); assay: WST-1 cell viability assay, 48-h incubation; format: cell-based, human; details: WST-1, 48 h
Procedure: as §4, §5, §6, §7, §8

[13] = test system: A375 (melanoma); assay: WST-1 cell viability assay, 48-h incubation; format: cell-based, human; details: A375, WST-1, 48 h
Procedure: as §4, §5, §6, §7, §8

[14] = test system: A549 (non-small cell lung carcinoma); assay: WST-1 cell viability assay, 48-h incubation; format: cell-based, human; details: A549, WST-1, 48 h
Procedure: as §4, §5, §6, §7, §8

[15] = test system: A431 (skin squamous cell carcinoma); assay: WST-1 cell viability assay, 48-h incubation; format: cell-based, human; details: A431, WST-1, 48 h
Procedure: as §4, §5, §6, §7, §8

For O=C1Nc2ccccc2/C1=C1/Nc2ccccc2C1=O [indirubin], the IC50 [1] is listed as over 100 µM, the IC50 [2] is listed as 42 µM and the IC50 [3] is listed as over 100 µM. For the same molecule, the IC50 [4] was over 100 µM, the IC50 [5] was over 100 µM and the IC50 [6] was 31 µM.
With O=C1Nc2ccccc2/C1=C1/Nc2ccccc2/C1=N\O [I3M, indirubin-3′-monoxime] the “Stability −80 °C 91 d” value ([7]; 2.0 nM) was 101.0 ± 9.0%, the “Stability −80 °C 91 d” value ([7]; 167 nM) was 103.0 ± 3.6% and the “Stability 4 °C” value ([8]; 3.0 nM) was 113.8 ± 6.6%. The “Stability AS (autosampler)” value ([8]; 3.0 nM) was 65.0 ± 1.3%, the “Stability −20 °C” value ([8]; 3.0 nM) was 92.0 ± 1.1% and the “Stability FT (freeze-thaw)” value ([8]; 3.0 nM) was 100.0 ± 5.7%. For the same molecule, the “Stability −80 °C 91 d” value ([8]; 3.0 nM) was 90.6 ± 4.5%, the “Stability BT (benchtop)” value ([8]; 3.0 nM) was 66.8 ± 2.7% and the “Stability 4 °C” value ([8]; 40 nM) was 100.4 ± 1.3%. The “Stability AS (autosampler)” value ([8]; 40 nM) was 63.6 ± 0.3%, the “Stability −20 °C” value ([8]; 40 nM) was 93.1 ± 2.5% and the “Stability FT (freeze-thaw)” value ([8]; 40 nM) was 99.5 ± 3.2%. The “Stability −80 °C 91 d” value ([8]; 40 nM) was 99.0 ± 2.7%, the “Stability BT (benchtop)” value ([8]; 40 nM) was 59.4 ± 2.4% and the “Stability 4 °C” value ([9]; 2.0 nM) was 89.7 ± 1.5%. The “Stability AS (autosampler)” value ([9]; 2.0 nM) was 124.3 ± 9.5%, the “Stability −20 °C” value ([9]; 2.0 nM) was 95.2 ± 3.7% and the “Stability FT (freeze-thaw)” value ([9]; 2.0 nM) was 104.1 ± 5.5%. For the same molecule, the “Stability BT (benchtop)” value ([9]; 2.0 nM) was 100.1 ± 9.0%, the “Stability 4 °C” value ([9]; 167 nM) was 91.5 ± 3.3% and the “Stability AS (autosampler)” value ([9]; 167 nM) was 112.0 ± 6.8%. The “Stability −20 °C” value ([9]; 167 nM) was 93.7 ± 7.7%, the “Stability FT (freeze-thaw)” value ([9]; 167 nM) was 99.7 ± 7.4% and the “Stability BT (benchtop)” value ([9]; 167 nM) was 98.6 ± 4.3%. The “Stability 4 °C” value ([10]; 3.0 nM) was 95.9 ± 8.7%, the “Stability AS (autosampler)” value ([10]; 3.0 nM) was 68.0 ± 1.5% and the “Stability −20 °C” value ([10]; 3.0 nM) was 93.8 ± 1.9%. For the same molecule, the “Stability FT (freeze-thaw)” value ([10]; 3.0 nM) was 94.9 ± 4.0%, the “Stability −80 °C 90 d” value ([10]; 3.0 nM) was 96.2 ± 7.2% and the “Stability BT (benchtop)” value ([10]; 3.0 nM) was 102.2 ± 1.8%. The “Stability 4 °C” value ([10]; 250 nM) was 94.6 ± 2.2%, the “Stability AS (autosampler)” value ([10]; 250 nM) was 58.5 ± 1.3% and the “Stability −20 °C” value ([10]; 250 nM) was 96.5 ± 1.6%. For the same molecule, the “Stability FT (freeze-thaw)” value ([10]; 250 nM) was 99.7 ± 1.6%, the “Stability −80 °C 90 d” value ([10]; 250 nM) was 100.6 ± 3.0% and the “Stability BT (benchtop)” value ([10]; 250 nM) was 96.3 ± 7.3%.
In the case of O=C1Nc2ccccc2/C1=C1/Sc2ccccc2C1=O [KD88, 3-[3′-oxo-benzo[b]thiophene-2′-(Z)-ylidene]-oxindole], the “cytotoxic potential (in words)” value [11] is reported as “no cytotoxic potential”, the “cytotoxic potential (in words)” value [12] is reported as “no cytotoxic potential” and the “cytotoxic potential (in words)” value [13] is reported as “no cytotoxic potential”. For the same molecule, the “cytotoxic potential (in words)” value [14] was “no cytotoxic potential” and the “cytotoxic potential (in words)” value [15] was “no cytotoxic potential”.
